The source of these data is patent publication US20250136553A1, “ACYLSULFONAMIDE KAT6A INHIBITORS” (Olema Pharmaceuticals, Inc., priority 2023, published 2025).

The target of the first assay is human-KAT6A (MYST domain 507-778 aa) (Homo sapiens (Human), UniProt Q92794). The assay can be described thus: KAT6A biochemical assay (TR-FRET). The following applies: @ 1 μM; reported where IC50 could not be determined; read-out: Percent inhibition at specific concentration (KAT6A). The essentials: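 KAT6A MYST domain preincubated with compound 30 min at 25° C, then reacted 60 min at 25° C with 200 nM biotin-H4 peptide and 600 nM acetyl-CoA (final). Europium anti-acetyl-lysine/streptavidin-APC TR-FRET read (Ex 340, Em 615/665 nm); % inhibition from 665/615 ratio, IC50 by sigmoidal fit.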
Sequence of human-KAT6A (MYST domain 507-778 aa) (Q92794 507-778): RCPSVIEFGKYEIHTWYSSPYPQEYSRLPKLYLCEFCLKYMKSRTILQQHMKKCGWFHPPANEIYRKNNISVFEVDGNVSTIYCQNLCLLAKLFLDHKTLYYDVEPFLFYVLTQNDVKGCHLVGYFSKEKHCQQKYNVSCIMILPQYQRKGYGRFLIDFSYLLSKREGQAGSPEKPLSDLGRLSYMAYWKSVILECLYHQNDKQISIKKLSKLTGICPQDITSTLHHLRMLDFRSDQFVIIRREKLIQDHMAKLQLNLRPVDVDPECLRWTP
As for `COc1cccc(OC)c1S(=O)(=O)NC(=O)c1ccc(Cn2cccn2)c(OC(F)F)n1` [Compound 215, 5-((1H-pyrazol-1-yl)methyl)-6-(difluoromethoxy)-N-((2,6-dimethoxyphenyl)sulfonyl)picolinamide], the inhibition at 1 µM came to 16%.

The same assay, now with this note: TR-FRET; histone H4 peptide 200 nM, acetyl-CoA 600 nM; read-out: KAT6A IC50.
In the case of `COc1cc2c(cc1S(=O)(=O)NC(=O)c1ccc(Cn3cccn3)c(OC)n1)CCC2` [Compound 213, 5-((1H-pyrazol-1-yl)methyl)-6-methoxy-N-((6-methoxy-2,3-dihydro-1H-inden-5-yl)sulfonyl)picolinamide], the IC50 is 12 nM.

`COc1ccc(C)cc1S(=O)(=O)NC(=O)c1ccc(Cn2cccn2)c(OC)n1` [Compound 214, 5-((1H-pyrazol-1-yl)methyl)-6-methoxy-N-((2-methoxy-5-methylphenyl)sulfonyl)picolinamide]: the IC50 was determined as 12 nM.

For `COc1ccc2c(c1S(=O)(=O)NC(=O)c1ccc(Cn3cccn3)c(OC)n1)CCC2` [Compound 216, 5-((1H-pyrazol-1-yl)methyl)-6-methoxy-N-((5-methoxy-2,3-dihydro-1H-inden-4-yl)sulfonyl)picolinamide], the IC50 was determined as 12 nM.

For the compound `COc1ccc2c(c1S(=O)(=O)NC(=O)c1ccc(Cn3cccn3)c(OC)n1)CCCC2` [Compound 217, 5-((1H-pyrazol-1-yl)methyl)-6-methoxy-N-((2-methoxy-5,6,7,8-tetrahydronaphthalen-1-yl)sulfonyl)picolinamide], the IC50 worked out at 11 nM.

For `CCOc1cccc(OC)c1S(=O)(=O)NC(=O)c1ccc(Cn2cccn2)c(OC)n1` [Compound 218, 5-((1H-pyrazol-1-yl)methyl)-N-((2-ethoxy-6-methoxyphenyl)sulfonyl)-6-methoxypicolinamide], the IC50 was found to be 8 nM.

Take `COc1cccc(OC2CCC2)c1S(=O)(=O)NC(=O)c1ccc(Cn2cccn2)c(OC)n1` [Compound 219, 5-((1H-pyrazol-1-yl)methyl)-N-((2-cyclobutoxy-6-methoxyphenyl)sulfonyl)-6-methoxypicolinamide]: the IC50 was 9 nM.

On to `COc1cccc(OC(F)F)c1S(=O)(=O)NC(=O)c1ccc(Cn2cccn2)c(OC)n1` [Compound 220, 5-((1H-pyrazol-1-yl)methyl)-N-((2-(difluoromethoxy)-6-methoxyphenyl)sulfonyl)-6-methoxypicolinamide], for which the IC50 was determined as 7 nM.

`COc1cccc(OC(C)C)c1S(=O)(=O)NC(=O)c1ccc(Cn2cccn2)c(OC)n1` [Compound 221, 5-((1H-pyrazol-1-yl)methyl)-N-((2-isopropoxy-6-methoxyphenyl)sulfonyl)-6-methoxypicolinamide]: the IC50 stood at 5 nM.

Regarding `COc1ccc(C)c(OC)c1S(=O)(=O)NC(=O)c1ccc(Cn2cccn2)c(OC)n1` [Compound 222, 5-((1H-pyrazol-1-yl)methyl)-N-((2,6-dimethoxy-3-methylphenyl)sulfonyl)-6-methoxypicolinamide], the IC50 amounted to 18 nM.

For the compound `COc1ccc(C2CC2)c(OC)c1S(=O)(=O)NC(=O)c1ccc(Cn2cccn2)c(OC)n1` [Compound 223, 5-((1H-pyrazol-1-yl)methyl)-N-((3-cyclopropyl-2,6-dimethoxyphenyl)sulfonyl)-6-methoxypicolinamide], the 50% inhibitory concentration (IC50) came to 17 nM.

With `COc1cc(OC)c(S(=O)(=O)NC(=O)c2ccc(Cn3cccn3)c(OC)n2)c(OC)c1` [Compound 224, 5-((1H-pyrazol-1-yl)methyl)-6-methoxy-N-((2,4,6-trimethoxyphenyl)sulfonyl)picolinamide], the IC50 worked out at 11 nM.

On to `CCc1ccc(OC)c(S(=O)(=O)NC(=O)c2ccc(Cn3cccn3)c(OC)n2)c1OC` [Compound 225, 5-((1H-pyrazol-1-yl)methyl)-N-((3-ethyl-2,6-dimethoxyphenyl)sulfonyl)-6-methoxypicolinamide], for which the IC50 was found to be 10 nM.

For the compound `COc1ccc(S(=O)(=O)NC(=O)c2ccc(Cn3cccn3)c(OC)n2)c(OC)c1` [Compound 226, 5-((1H-pyrazol-1-yl)methyl)-N-((2,4-dimethoxyphenyl)sulfonyl)-6-methoxypicolinamide], the IC50 turned out to be 27 nM.

Regarding `COc1cccc(OCC(F)(F)F)c1S(=O)(=O)NC(=O)c1ccc(Cn2cccn2)c(OC)n1` [Compound 227, 5-((1H-pyrazol-1-yl)methyl)-6-methoxy-N-((2-methoxy-6-(2,2,2-trifluoroethoxy)phenyl)sulfonyl)picolinamide], the IC50 was 11 nM.

As for `COc1cccc(OC)c1S(=O)(=O)NC(=O)c1ccc(Cn2cccn2)c(OC(F)(F)F)n1` [Compound 228, 5-((1H-pyrazol-1-yl)methyl)-N-((2,6-dimethoxyphenyl)sulfonyl)-6-(trifluoromethoxy)picolinamide], the IC50 was determined as 21 nM.

Take `COc1cccc(OC)c1S(=O)(=O)NC(=O)c1ccc(Cn2cccn2)c(C2CC2)n1` [Compound 229, 5-((1H-pyrazol-1-yl)methyl)-6-cyclopropyl-N-((2,6-dimethoxyphenyl)sulfonyl)picolinamide]: the IC50 turned out to be 13 nM.

For `COc1ccc(C(C)(C)O)cc1S(=O)(=O)NC(=O)c1ccc(Cn2cccn2)c(OC)n1` [Compound 230, 5-((1H-pyrazol-1-yl)methyl)-N-((5-(2-hydroxypropan-2-yl)-2-methoxyphenyl)sulfonyl)-6-methoxypicolinamide], the IC50 is 11 nM.

In the case of `COc1cccc(OC)c1S(=O)(=O)NC(=O)c1ccc(Cn2cccn2)c(C(F)F)n1` [Compound 231, 5-((1H-pyrazol-1-yl)methyl)-6-(difluoromethyl)-N-((2,6-dimethoxyphenyl)sulfonyl)picolinamide], the IC50 came to 14 nM.

With `COc1ccccc1S(=N)(=O)NC(=O)c1ccc(Cn2cccn2)c(OC)n1` (stereo not shown) [Compound 232, 5-((1H-pyrazol-1-yl)methyl)-6-methoxy-N-(2-methoxyphenylsulfonimidoyl)picolinamide], the 50% inhibitory concentration (IC50) came to 95 nM.

For the compound `COc1nc(C(=O)NS(=O)(=O)c2cccc3c2CCC3)ccc1Cn1cccn1` [Compound 233, 5-((1H-pyrazol-1-yl)methyl)-N-((2,3-dihydro-1H-inden-4-yl)sulfonyl)-6-methoxypicolinamide], the IC50 was found to be 94 nM.

On to `COc1nc(C(=O)NS(=O)(=O)c2ccc3c(c2)CCC3)ccc1Cn1cccn1` [Compound 234, 5-((1H-pyrazol-1-yl)methyl)-N-((2,3-dihydro-1H-inden-5-yl)sulfonyl)-6-methoxypicolinamide], for which the IC50 worked out at 42 nM.

For `COc1cccc(OC(F)(F)F)c1S(=O)(=O)NC(=O)c1ccc(Cn2cccn2)c(OC)n1` [Compound 235, 5-((1H-pyrazol-1-yl)methyl)-6-methoxy-N-((2-methoxy-6-(trifluoromethoxy)phenyl)sulfonyl)picolinamide], the IC50 stood at 7 nM.

In the case of `COc1cccc(OC)c1S(=O)(=O)NC(=O)c1ccc(Cn2cccn2)c(C(F)(F)F)n1` [Compound 236, 5-((1H-pyrazol-1-yl)methyl)-N-((2,6-dimethoxyphenyl)sulfonyl)-6-(trifluoromethyl)picolinamide], the IC50 worked out at 4 nM.

As for `COc1nc(C(=O)NS(=O)(=O)c2cccc(C(C)(C)O)c2)ccc1Cn1cccn1` [Compound 237, 5-((1H-pyrazol-1-yl)methyl)-N-((3-(2-hydroxypropan-2-yl)phenyl)sulfonyl)-6-methoxypicolinamide], the IC50 was determined as 44 nM.

Turning to `COc1cc(OC)c(S(=O)(=O)NC(=O)c2ccc(Cn3cccn3)c(OC)n2)cc1Cl` [Compound 238, 5-((1H-pyrazol-1-yl)methyl)-N-((5-chloro-2,4-dimethoxyphenyl)sulfonyl)-6-methoxypicolinamide], the half-inhibitory concentration (IC50) amounted to 37 nM.

For `CCC(C)(O)c1ccc(OC)c(S(=O)(=O)NC(=O)c2ccc(Cn3cccn3)c(OC)n2)c1` (stereo not shown) [Compound 239, 5-((1H-pyrazol-1-yl)methyl)-N-((5-(2-hydroxybutan-2-yl)-2-methoxyphenyl)sulfonyl)-6-methoxypicolinamide], the IC50 was 12 nM.

Regarding `COc1ccc(C(C)(O)C2CC2)cc1S(=O)(=O)NC(=O)c1ccc(Cn2cccn2)c(OC)n1` (stereo not shown) [Compound 240, 5-((1H-pyrazol-1-yl)methyl)-N-((5-(1-cyclopropyl-1-hydroxyethyl)-2-methoxyphenyl)sulfonyl)-6-methoxypicolinamide], the IC50 was determined as 11 nM.

`COc1ccc(Cl)c(OC)c1S(=O)(=O)NC(=O)c1ccc(Cn2cccn2)c(OC)n1` [Compound 241, 5-((1H-pyrazol-1-yl)methyl)-N-((3-chloro-2,6-dimethoxyphenyl)sulfonyl)-6-methoxypicolinamide]: the IC50 amounted to 10 nM.

As for `COc1cc(OC)c(S(=O)(=O)NC(=O)c2ccc(Cn3cccn3)c(OC)n2)cc1Br` [Compound 242, 5-((1H-pyrazol-1-yl)methyl)-N-((5-bromo-2,4-dimethoxyphenyl)sulfonyl)-6-methoxypicolinamide], the IC50 was 10 nM.

For `COc1cccc(OC)c1S(=N)(=O)NC(=O)c1ccc(Cn2cccn2)c(OC)n1` (stereo not shown) [Compound 243, 5-((1H-pyrazol-1-yl)methyl)-N-(2,6-dimethoxyphenylsulfonimidoyl)-6-methoxypicolinamide], the IC50 was found to be 23 nM.

Consider `COc1cc(OC)c(S(=O)(=O)NC(=O)c2ccc(Cn3cccn3)c(OC)n2)cc1F` [Compound 244, 5-((1H-pyrazol-1-yl)methyl)-N-((5-fluoro-2,4-dimethoxyphenyl)sulfonyl)-6-methoxypicolinamide], for which the IC50 was found to be 14 nM.

As for `COc1cccc(OCC2CC2)c1S(=O)(=O)NC(=O)c1ccc(Cn2cccn2)c(OC)n1` [Compound 245, 5-((1H-pyrazol-1-yl)methyl)-N-((2-(cyclopropylmethoxy)-6-methoxyphenyl)sulfonyl)-6-methoxypicolinamide], the 50% inhibitory concentration (IC50) is 12 nM.

Turning to `COc1cc(OC)c(S(=O)(=O)NC(=O)c2ccc(Cn3cccn3)c(OC)n2)c2c1CCO2` [Compound 253, 5-((1H-pyrazol-1-yl)methyl)-N-((4,6-dimethoxy-2,3-dihydrobenzofuran-7-yl)sulfonyl)-6-methoxypicolinamide], the IC50 came to 9 nM.
